Experimental data taken from patent US12667546B2, “Methods for manipulating cell state transitions in cancer” (AGENCY FOR SCIENCE, TECHNOLOGY AND RESEARCH, priority 2018, dated 2026).
“And” between values parts separate entries of the source, which are not always exact repeats. Equal values may be shown once. Where a name gives a salt, the structure may show the parent alone.

Key:
[1] = system: SERPINE1prom-Luc reporter in NAMEC8 cells; assay: Dual-Glo luciferase assay of SERPINE1prom-Luc reporter (FF/Ren); assay type: cell-based, human; conditions: primary screen, NAMEC8-SERPINE1prom-Luc cells grown 3 days with compound, relative to DMSO; for activity at 10 µM: Homo sapiens, 72 h, read-out: Avr FF/Renilla from DMSO
From the text: pGreenFire1-mCMV was cut using ClaI and SpeI and gel purified. Promoter sequences of genes Zeb1, Serpine1, CDH1, CD24, CD44, CD166 were amplified from human genomic DNA with pre-designed primers containing ClaI and SpeI restriction cut sites using AccuPrime Taq DNA Polymerase (Thermo Fisher Scientific). PCR products were then digested with restriction enzymes and gel-purified. Vector was ligated with PCR insert using Quick Ligase (Fermentas) and transformed into Stb12 competent cells. Colonies were picked and inoculated into TB media with ampicillin. Plasmids were then isolated using a plasmid miniprep kit (Qiagen) and sent for sequencing (1 stBASE Laboratories). After verifying the plasmid sequence, transfection into HEK293 cells was carried out to generate lentivirus. Transfection was carried out using FuGENE 6 (Promega). Viral supernatant was harvested at 24 h and 48 h. NAMEC8 cells were then infected twice with virus using polybrene ([…]) and checked for good transduction efficiency using Dual-Glo Luciferase System (Promega).
Stock plates of compound libraries were kindly prepared by GIS CHiP facility at 1 mM concentration in DMSO. NAMEC8-SERPINE1prom-Luc cells were seeded into 384 well plates at a density of 700 cells/well in a total volume of 50 μl, using an automated dispensing system (BioTek). 0.5 μl of compounds were then added to the wells the following day using a robotic pin transfer with a Bravo workstation (Agilent Technologies). Cells were then grown for 3 days and promoter-luciferase activity was measured using the Dual-Glo Luciferase System (Promega).
Assay was carried out according to manufacturer's instructions. To measure luciferase activity in 384 well plates, media was first removed from the plate. Firefly luciferase activity was determined by adding 30 μl Dual-Glo Luciferase substrate (Promega) to the wells and incubated for 10 min before measuring luminescence using a TECAN M1000 Pro plate reader. 15 μl Dual-Glo Stop & Glo substrate was then added to the wells, incubated for 10 min and measuring luminescence on the plate reader to determine Renilla luciferase activity. Promoter luciferase activity is then calculated by taking Firefly luciferase over Renilla luciferase.

[2] = system: NAMEC8-SERPINE1prom-Luc cells; assay: Renilla-luciferase (constitutive CMV promoter) readout for cell numbers; assay type: cell-based, human; conditions: primary screen, Renilla as readout for cell numbers, relative to DMSO; for viability at 10 µM: Homo sapiens, 72 h, read-out: % Avr Renilla from DMSO

Row | Compound | Avr FF/Renilla from DMSO [1] | % Avr Renilla from DMSO [2] | activity at 10 µM [1] [%] | viability at 10 µM [2] [%]
1 | NC(=O)c1ccc(-c2nc(-c3ccccn3)c(-c3ccc4c(c3)OCO4)[nH]2)cc1 [SB 431542] | 0.50 | 51.90% | – | –
2 | Cc1cccc(-c2[nH]c(C(C)(C)C)nc2-c2ccc3nccnc3c2)n1 [SB-525334] | 0.37 | 51.73% | – | –
3 | O=C(O)CCC/C=C\C[C@H]1C(=O)C=C[C@@H]1/C=C/[C@@H](O)COc1ccccc1 [16-phenoxy tetranor Prostaglandin A2] | 0.59 | 82.64% | – | –
4 | CC1=C(/C=C/C(C)=C/C=C/C(C)=C\C(=O)O)C(C)(C)CCC1 [Isotretinoin] | – | – | 37 | 84.1
5 | NC(=O)c1ccc(-c2nc(-c3ccc4c(c3)OCCO4)c(-c3ccccn3)[nH]2)cc1 [D 4476] | 0.57 | 53.26% | – | –
6 | S=C(NCc1ccc2c(c1)OCO2)N1CCN(c2ncnc3c2oc2ccccc23)CC1 [Amuvatinib (MP-470)] | 0.37 and 0.23 | 140.20% and 213.43% | – | –
7 | CAY10587 | 0.56 | 72.88% | – | –
8 | CCCCC(C)(C)[C@H](O)/C=C/[C@H]1C(=O)C[C@H](O)[C@@H]1C/C=C\CCCC(=O)O [16,16-dimethyl Prostaglandin D2] | 0.48 | 52.62% | – | –
9 | O=c1[nH]c(=O)n([C@H]2C[C@H](O)[C@@H](CO)O2)cc1Br [5-Bromo-2′-deoxyuridine] | – | – | 67 | 65.7
10 | CCCCCCCCCCCCC/C=C/[C@@H](O)[C@H](CO)NC(=O)CCCCCCC [C-8 Ceramide] | 0.54 | 70.74% | – | –
11 | Cn1cc(C2=C(c3ccc(Cl)cc3Cl)C(=O)NC2=O)c2ccccc21 [SB 216763] | 0.56 | 107.55% | – | –
12 | CCCCC/C=C\C=C1\C(=O)C[C@H](O)[C@@H]1C/C=C\CCCC(=O)O [15-deoxy-_12,14-Prostaglandin D2] | 0.57 | 68.09% | – | –
13 | CCCCCCCCc1ccc(-c2ccc(C(=O)O)cc2)cc1 [AC-55649] | 0.59 | 106.55% | – | –
14 | N#C/C(=C\c1ccc(O)c(O)c1)C(=O)NCc1ccccc1 [AG-490] | 0.47 | 64.03% | – | –
15 | C[N+]1(C)[C@@H]2CC[C@H]1C[C@@H](OC(=O)C(CO)c1ccccc1)C2 (stereo partly shown) [Atropine methyl nitrate] | – | – | 68 | 103
16 | COc1ccc(Br)cc1S(=O)(=O)NC(=O)/C=C/c1ccccc1Cc1ccc2ccccc2c1 [L-798106] | 0.13 | 68.99% | – | –
17 | CCN(CC)CCCCNc1ncc2cc(-c3c(Cl)cccc3Cl)c(NC(=O)NC(C)(C)C)nc2n1 [PD-161570] | 0.39 | 74.13% | – | –
18 | Cc1cc(Nc2ncnc3ccc(NC4=NC(C)(C)CO4)cc23)ccc1Oc1ccn2ncnc2c1 [Arry-380] | – | – | 73 | 67.3
19 | COc1ccc(S(=O)(=O)N(CCO)c2ccccc2CN(C)C/C=C/c2ccc(Cl)cc2)cc1 [KN-93] | 0.59 | 54.45% | – | –
20 | CCCn1c(=O)c2[nH]c(-c3ccc(S(=O)(=O)O)cc3)nc2n(CCC)c1=O [1,3-Dipropyl-8-p-sulfophenylxanthine] | – | – | 61 | 103
21 | CN(Cc1cnc2nc(N)nc(N)c2n1)c1ccc(C(=O)N[C@@H](CCC(=O)O)C(=O)O)cc1 [Abitrexate (Methotrexate), Methotrexate] | – | – | 56 | 55.6
22 | N[C@@H](CC(=O)O)C(=O)O [L-Aspartic acid] | – | – | 71 | 99.3
23 | CN1CCc2cccc3c2[C@H]1Cc1ccc(O)c(O)c1-3 [Apomorphine hydrochloride hemihydrate] | – | – | 84 | 85.1
